Test results taken from patent US5973229A, “Gene encoding herbicide safener binding protein” (Board of Trustees Operating Michigan State University, priority 1997, dated 1999).

Columns and labels:
[1] = target: T1, SafBP (SBP1 expressed in E. coli) (Zea mays, UniProt O49010); assay: [3H]Saf binding in extracts of E. coli expressing SBP1; set-up: species or system maize (Zea mays L.); settings: for Total [3H]Saf binding: E. coli/SBP1 2-hr extract, 20.9 μg protein, [3H]R-29148 alone 67.3, average of duplicates
T1 construct: possible vector-derived N-terminal residues
T1 sequence (O49010 1-363): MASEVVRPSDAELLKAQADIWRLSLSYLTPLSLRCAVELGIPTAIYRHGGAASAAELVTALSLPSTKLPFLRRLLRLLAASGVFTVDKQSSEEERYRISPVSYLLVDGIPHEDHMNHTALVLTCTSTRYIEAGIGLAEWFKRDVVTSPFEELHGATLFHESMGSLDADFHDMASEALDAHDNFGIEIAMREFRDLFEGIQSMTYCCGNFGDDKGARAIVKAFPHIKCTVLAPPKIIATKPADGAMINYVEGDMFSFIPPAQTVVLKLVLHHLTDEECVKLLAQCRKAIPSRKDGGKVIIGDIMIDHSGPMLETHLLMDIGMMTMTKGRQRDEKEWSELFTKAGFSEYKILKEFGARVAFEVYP
Procedure: Binding Assay. Racemic R-29148 (Saf) and [^3 H]Saf (specific activity 15 Ci/mmol) were prepared according to Latli, B. et al., J. Labelled Cmpd Radiopharmn. 36:147-155 (1995). The sources of other chemicals are given in Walton, J. D. and Casida, J. E., Plant Physiol. 109:213-219 (1995). [^3 H]Saf binding was measured by incubating extracts with ca. 400,000 cpm of [^3 H]Saf in 50 mM Tris-HCl, pH 8, in a total volume of 1 mL for 60 min at 22° C. The extracts were then filtered through GF/A (Whatman) glass fiber filters that had been soaked in 0.3% polyethylenimine, the filters rinsed with water, and radioactivity retained on the filters measured by scintillation counting. Walton, J. D. and Casida, J. E., Plant Physiol. 109:213-219 (1995).
Expression of SafBP in E. coli. Vector pZL1 (Gibco-BRL) containing the SafBP cDNA clone was digested with EcoRI and NotI, the 1.5-kb insert cloned into the corresponding sites in the E. coli expression vector pET21c (Novagen, Madison, Wis.), and the resulting construct transformed into E. coli strain BL21(DE3) (Novagen). A 50-mL culture of this strain was grown at 37° C. to an OD600 of 0.5 at which point expression of the cDNA was induced with 1 mM isopropylthiogalactoside (IPTG). As a control, E. coli BL21(DE3) transformed with pET21c with no insert was grown in parallel. Samples (each 12.5 mL) were removed at 0, 1, 2, and 3 hr after induction, centrifuged, and extracted by the freeze-thaw method according to Novagen, and centrifuged again to remove cell debris. Each sample was in a final volume of 5 mL of 50 mM Tris-HCl, pH 8; 50 μL of this was used in the [^3 H]Saf binding assay according to Walton and Casida. Walton, J. D. and Casida, J. E., Plant Physiol. 109:213-219 (1995).
SBP1 was expressed in E. coil behind an IPTG-inducible promoter. Extracts of E. coil expressing SBP1 have strong SafBA whereas cells transformed with the empty expression vector have no binding (Table II). […] After growing to an OD600 of 0.5, cells were induced with IPTG and aliquots harvested at the indicated times after induction, lysed, and centrifuged to remove cell debris. Final volume of each extract was 5 mL. Control cells were transformed with the vector without insert. Values are the average of duplicates. Like [^3 H]Saf binding to the native maize protein, [^3 H]Saf binding in E. coli extracts is inhibited by dichlormid, EPTC, metolachlor, acetochlor, and alachlor (Table III). Table III provides inhibition of [^3 H]Saf binding by safeners and herbicides in extracts of E. coli expressing SBP1. The E.coli/SBP1 2-hr time point from […] was used; protein content per sample was 20.9 μg. Values are the average of duplicates.

[2] = target: safener binding activity (SafBA) / SafBP; settings: cited from earlier work; for IC50: maize SafBA, from Walton and Casida 1995, read-out: IC50 (inhibitor concentration that reduces specific [3H]Saf binding by 50%)
[3] = competitor Concentration 1.1 (unit not given)

SMILES | IC50 [2] | Inhibition of R-29148 binding in extracts of E. coli cells expressing SBP1 [1] | SafBP binds herbicide [2] | Total [3H]Saf binding [1, 3] | further results
CC1CN(C(=O)C(Cl)Cl)C(C)(C)O1 (racemic) [R-29148, (R,S)-3-dichloroacetyl-2,2,5-trimethyloxazolidine] | 120 nM | – | – | – | Total [3H]Saf binding ([1]; competitor Concentration 2.5 (unit not given)): 3.0; Kd ([2]; soluble, high affinity binding activity in extracts of etiolated maize seedlings, read-out: Kd of safener binding activity (SafBA) for [3H]Saf): 120 nM
CCCN(CCC)C(=O)SCC [EPTC, S-ethyl dipropylthiocarbamate] | 110 nM | competitively inhibited | binds | – | Total [3H]Saf binding ([1]; competitor Concentration 1.6 (unit not given)): 1.7
CCOCN(C(=O)CCl)c1c(C)cccc1CC [acetochlor] | 180 nM | inhibited | binds | 21.6 | –
CCc1cccc(CC)c1N(COC)C(=O)CCl [alachlor] | 70 nM | competitively inhibited | binds | 1.7 | –
CCSC(=O)N(CC(C)C)CC(C)C [butylate] | – | – | binds | – | –
CCSC(=O)N(CC)C1CCCCC1 [cycloate] | – | – | binds | – | –
C=CCN(CC=C)C(=O)C(Cl)Cl [dichlormid] | 10 nM | competitively inhibited | – | – | Total [3H]Saf binding ([1]; competitor Concentration 1.4 (unit not given)): 0.7
CCc1cccc(C)c1N(C(=O)CCl)C(C)COC (centres unmarked) [metolachlor] | 40 nM | competitively inhibited | binds | 3.3 | –
CC(C)N(C(=O)CCl)c1ccccc1 [propachlor] | – | – | binds | – | –
CC(C)N(C(=O)SCC(Cl)=C(Cl)Cl)C(C)C [triallate] | – | – | binds | – | –
